Measurements taken from Sander's compilation of Henry's law constants (doi:10.1021/je00026a010).

assay: Henry solubility constant Hcp at 298.15 K (mol/(m3 Pa)); conditions: reference: Leighton and Calo (1981)

Row | Compound | Henry solubility constant Hcp
1 | CC(Cl)(Cl)Cl [1,1,1-trichloroethane] | 0.00049
2 | ClC(Cl)C(Cl)Cl [1,1,2,2-tetrachloroethane] | 0.027
3 | ClCC(Cl)Cl [1,1,2-trichloroethane] | 0.012
4 | C=C(Cl)Cl [1,1-dichloroethene] | 0.00026
5 | ClCC(Cl)CCl [1,2,3-trichloropropane] | 0.029
6 | CC(Cl)CCl (stereo not given) [1,2-dichloropropane] | 0.0034
7 | ClCCCCl [1,3-dichloropropane] | 0.01
8 | ClCCCCCl [1,4-dichlorobutane] | 0.02
9 | ClCCCCCCl [1,5-dichloropentane] | 0.018
10 | CCCCCl [1-chlorobutane] | 0.00059
11 | CCCCCCCl [1-chlorohexane] | 0.00041
12 | CCCCCCl [1-chloropentane] | 0.00041
13 | CCC(C)Cl (stereo not given) [2-chlorobutane] | 0.00041
14 | c1ccccc1 [benzene] | 0.0018
15 | Clc1ccccc1 [chlorobenzene] | 0.003
16 | ClCCl [dichloromethane] | 0.003
17 | Cc1ccccc1 [methylbenzene] | 0.0015
18 | ClC(Cl)=C(Cl)Cl [tetrachloroethene] | 0.00061
19 | ClC(Cl)(Cl)Cl [tetrachloromethane] | 0.00036
20 | ClC=C(Cl)Cl [trichloroethene] | 0.001
